Experimental data reported in patent US20190083521A1, “COMBINATION THERAPY FOR TREATING CANCER” (Epizyme, Inc., priority 2014, published 2019).

Assays:
[1] = test system: OCI-AML-4 (MLL-ENL) cells; test: Example 7 primary screen: 300 nM EPZ-5676 pre-treatment, second compound 72 h, ATPLite, GI100 shift; type: cell-based; conditions: OCI-AML-4 (MLL-ENL); 300 nM EPZ-5676 pre-treatment vs DMSO
Procedure: (§1) Cells were split using EPZ-5676 or DMSO containing growth media and further incubated for an additional 3-day pre-treatment time. Cells were finally seeded in growth media containing EPZ-5676 or DMSO in 384-well plates at 500 cell/well density. Cells were then equilibrated in incubators for 24 hours before treatment with a second compound. Treated assay plates were incubated with a second compound for 72 hours. After this time, plates were developed for endpoint analysis using ATPLite to measure ATP content, which is used as an indicator of cell viability.
(§2) “N/D” means the GI100 of the second compound could not be determined for both conditions and “-” means not tested.
(§3) Growth Inhibition (GI) as a measure of cell viability: The cell viability of vehicle was measured at the time of dosing the second agent (T0) and after seventy-two hours (T72). A GI reading of 0% represents no growth inhibition—cells treated with test compound as compared to T72 vehicle signals were measured. […] A GI 200% represents complete death of all cells in the culture well. Compounds reaching an activity plateau of GI 200% are considered cytotoxic. GI is calculated by applying the following test and equation: […]

THP-1 (MLL-AF9) cells = test: Example 7 retest: EPZ-5676 pre-treatment, second compound 72 h, Cell Titer Glo, growth inhibition; type: cell-based; design: GI100: unit not given here; conditions: NRAS G12D
Procedure: as §1, with “96-well plates.” for “384-well plates at 500 cell/well density.”, “treated” for “equilibrated in incubators for 24 hours before treatment with a second compound. Treated assay plates were incubated”, “Cell Titer Glo” for “ATPLite”
as §2, §3

[2] = test system: OCI-AML-4 (MLL-ENL) cells; test: as above; type: cell-based; conditions: OCI-AML-4 (MLL-ENL)
Procedure: (§4) Cells were then treated with a second compound for 72 hours. After this time, plates were developed for endpoint analysis using Cell Titer Glo to measure ATP content, which is used as an indicator of cell viability.
as §2
as §3, with “(T72).” for “(T72). A GI reading of 0% represents no growth inhibition—cells treated with test compound as compared to T72 vehicle signals were measured.”

MOLM-13 (MLL-AF9) cells [3] = test: Example 7 primary screen: 300 nM EPZ-5676 pre-treatment, second compound 72 h, ATPLite, GI100 shift; type: cell-based, human; conditions: MOLM-13 (MLL-AF9); 300 nM EPZ-5676 pre-treatment vs DMSO
Procedure: as §1, §2, §3

SKM-1 (non-MLLr) cells [4] = test: as above; type: cell-based, human; conditions: SKM-1 (non-MLLr); 300 nM EPZ-5676 pre-treatment vs DMSO
Procedure: as §1, §2, §3

MOLM-13 (MLL-AF9) cells [5] = test: Example 7 retest: EPZ-5676 pre-treatment, second compound 72 h, Cell Titer Glo, growth inhibition; type: cell-based, human; design: GI100: unit not given here; conditions: MOLM-13 (MLL-AF9)
Procedure: as §4, §2
as §3, with “(T72).” for “(T72). A GI reading of 0% represents no growth inhibition—cells treated with test compound as compared to T72 vehicle signals were measured.”

SKM-1 (non-MLLr) cells [6] = test: as above; type: cell-based, human; design: GI100: unit not given here; conditions: SKM-1 (non-MLLr)
Procedure: as §4, §2
as §3, with “(T72).” for “(T72). A GI reading of 0% represents no growth inhibition—cells treated with test compound as compared to T72 vehicle signals were measured.”

ML-2 (MLL-AF6) cells = test: as above; type: cell-based; design: GI100: unit not given here; conditions: ML-2 (MLL-AF6); KRAS A146T (het); second compound, 72 h
Procedure: as §4, §2
as §3, with “(T72).” for “(T72). A GI reading of 0% represents no growth inhibition—cells treated with test compound as compared to T72 vehicle signals were measured.”

RS4-11 (MLL-AF4) cells = test: as above; type: cell-based; design: GI100: unit not given here; conditions: RS4-11 (MLL-AF4), Ras mutation status: None known, second compound, 72 h
Procedure: as §4, §2
as §3, with “(T72).” for “(T72). A GI reading of 0% represents no growth inhibition—cells treated with test compound as compared to T72 vehicle signals were measured.”

[7] = 300 nM EPZ-5676 pre-treatment vs DMSO
[8] = NRAS Q61R (het), second compound, 72 h
[9] = KRAS K117N (homo), second compound, 72 h

Compound: Cn1cnc2c(F)c(Nc3ccc(Br)cc3Cl)c(C(=O)NOCCO)cc21 [Selumetinib (AZD6244), Selumetinib]
- Combination result with EPZ-5676, Primary screen [1]: Synergy (considered synergistic if the GI100 (Growth inhibition 100) value of the second compound decreased by 2-fold or more when EPZ-5676 was added as compared to the DMSO control)
- GI50 (THP-1 (MLL-AF9) cells): 160 nM
- GI100 (THP-1 (MLL-AF9) cells): >10
- Combination result with EPZ-5676, Retest [2, 7]: Synergy (considered synergistic if the GI100 (Growth inhibition 100) value of the second compound decreased by 2-fold or more when EPZ-5676 was added as compared to the DMSO control)
- Result (combination with EPZ-5676) ([2]; NRAS Q61R (het)): Synergy (considered synergistic if the GI100 (Growth inhibition 100) value of the second compound decreased by 2-fold or more when EPZ-5676 was added as compared to the DMSO control)
- GI50 [2, 8]: 116 nM
- GI100 [2, 8]: 3.169
- Combination result with EPZ-5676, Primary screen (MOLM-13 (MLL-AF9) cells [3]): Synergy (considered synergistic if the GI100 (Growth inhibition 100) value of the second compound decreased by 2-fold or more when EPZ-5676 was added as compared to the DMSO control)
- Combination result with EPZ-5676, Primary screen (SKM-1 (non-MLLr) cells [4]): Synergy (considered synergistic if the GI100 (Growth inhibition 100) value of the second compound decreased by 2-fold or more when EPZ-5676 was added as compared to the DMSO control)
- GI50 (MOLM-13 (MLL-AF9) cells [5]; Homo sapiens, Ras mutation status: None known, second compound, 72 h): 1250 nM
- Combination result with EPZ-5676, Retest (MOLM-13 (MLL-AF9) cells [5]; 150 nM EPZ-5676 pre-treatment vs DMSO): Synergy (considered synergistic if the GI100 (Growth inhibition 100) value of the second compound decreased by 2-fold or more when EPZ-5676 was added as compared to the DMSO control)
- Result (combination with EPZ-5676) (MOLM-13 (MLL-AF9) cells [5]; Ras mutation status: None known): Synergy (considered synergistic if the GI100 (Growth inhibition 100) value of the second compound decreased by 2-fold or more when EPZ-5676 was added as compared to the DMSO control)
- GI100 (MOLM-13 (MLL-AF9) cells [5]; Ras mutation status: None known, second compound, 72 h): 7.28
- Combination result with EPZ-5676, Retest (SKM-1 (non-MLLr) cells [6]; [7]): Synergy (considered synergistic if the GI100 (Growth inhibition 100) value of the second compound decreased by 2-fold or more when EPZ-5676 was added as compared to the DMSO control)
- Result (combination with EPZ-5676) (SKM-1 (non-MLLr) cells [6]; KRAS K117N (homo)): Synergy (considered synergistic if the GI100 (Growth inhibition 100) value of the second compound decreased by 2-fold or more when EPZ-5676 was added as compared to the DMSO control)
- GI50 (SKM-1 (non-MLLr) cells [6]; [9]): 20 nM
- GI100 (SKM-1 (non-MLLr) cells [6]; [9]): 0.12
- GI50 (ML-2 (MLL-AF6) cells): 40 nM
- GI100 (ML-2 (MLL-AF6) cells): 0.93
- GI50 (RS4-11 (MLL-AF4) cells; Homo sapiens): > 10000 nM
- GI100 (RS4-11 (MLL-AF4) cells): >10
